The subject of data set [1] is rat embryo fibroblast derived cell line (REF52). In words: Force response of ring samples to physiological activators without stretching. Type of data set: cell-based. Particulars: each drug added to a single tissue ring. On the procedure: Ring samples made using a rat embryo fibroblast derived cell line (REF52) were prepared as described previously herein. The length of the tissue was maintained at a constant level during the test. Each of the drugs indicated in FIG. 15 was added to a single tissue ring.

For the next data set, the system named is NIH 3T3 cells. As to the kind of experiment: Stress relaxation of tension in connective tissue models. Type of data set: cell-based. The note with it: different amounts. On the procedure: The connective tissue models made using NIH 3T3 cells were treated with different amounts of the candidate pharmaceutical, Y27632, a Rho kinase specific inhibitor, which has been tested for reducing tension of smooth muscle strips such as rabbit aortic rings (Nature 239 (1997) 990-993). It is one of the promising drug candidates for treating hypertension in the future. Depending on the agonists used to stimulate the tissue contraction, the degree of reduction in tension is different (FIG. 21). […] Thus, the methods are useful for screening pharmaceutical candidates.

The test system of the next data set is chicken cardiac cells. As to the kind of experiment: Force response of regular and miniaturized cardiac tissue models. Type of data set: cell-based. Particulars: regular and miniaturized tissues, after calf serum. On the procedure:
The sample sizes are determined by the diameters of the mandrels and inner diameters of the wells. […] Miniaturized samples made using chick cardiac cells show twitch responses. Therefore this system can be used to test the effects of pharmaceutical candidates treating cardiac dysfunctions (Insert in FIG. 9b)

Data set [2] has as its system smooth muscle cells (SMCs) isolated from rat aorta. As to the kind of experiment: Tissue indentation device: acute time-dependent cell force (Example 18). It is filed as cell-based. The note with it: measured at 0, 1, 4 and 7 min; 50 nM Norepinephrine, 100 nM Endothelin, 10% FBS (FIG. 34).
Experimental: To test the system's ability to measure acute time-dependent response after treating the ETs, vasoconstrictors, norepinephrine and endothelin-1 and general constricting agent, fetal bovine serum (FBS) were added to bio-artificial tissues with smooth muscle cells (SMCs) isolated from rat aorta (10^6 SMCs per ml of bio-artificial tissue solution at bio-artificial tissue formation). The force generated by these bio-artificial tissues was measured at 0, 1, 4 and 7 min after adding the agents. […] The total acquisition time for 64 data points was 40 minutes.
Data set [3] deals with bio-artificial tissues (extracellular matrix, cellular contractility). As to the kind of experiment: Tissue indentation device: mechanical changes in ECM, EA and pre-tension (Example 17). It is filed as cell-based. On the procedure: To verify the sensitivity for detecting changes in the mechanical properties of extracellular matrix (ECM) by the device, different concentrations of collagenase (1, 10, 100 U/ml) were administered to the different sets of bio-artificial tissues at time indicated by the arrow (b) in FIG. 33. All the bio-artificial tissues were treated with Endothelin-1 (50 nM, arrow a) to make sure the cells were responding to a contractile stimuli.
Experimental groups are separated into control (no treatment, filled circle), and treatments with 1, 10, 100 U/ml collagenase indicated by open circle, open triangle, and open square, respectively. After addition of 1 U/ml collagenase, the pre-tension, i.e. cellular contractility, was maintained compared to that of untreated control. […] While the collagenase digested the collagen matrix and affected ECM stiffness, the cell-ECM connection was slowly disrupted. Therefore, the cellular contractility was decreased especially with higher concentrations of collagenase. Nevertheless, the dataset indicated the measurement system sensitively detected incremental changes in ECM mechanics depending on the level of collagen degradation by the increasing concentrations of collagenase. At the 20 min time point (10 min after collagenase treatment), the apparent reduction of EA, but not pre-tension, indicates the EA was more sensitive to treatments affecting the extracellular matrix.

The subject of another data set is ring tissue model. In words: Contractile force developed by ring sample during tissue development (matrix remodeling and compression). Type of data set: cell-based. On the procedure: The contractile force developed by the ring sample during matrix remodeling and compression can be measured by connecting the ring to the force measuring apparatus as described above within about 1-2 hours after collagen gelation. The cells begin to exert a force on the matrix after this time. Then the increase of force during tissue development (remodeling and compression) is observed over time.
Maximum force is typically reached within 15 to 20 hours. This process was also disrupted by several inhibitors as illustrated in FIGS. 18(b)-(d).

The next data set concerns myosin ATPase. In words: Inhibition of contractile force activated by 20% FBS in ring sample. Type of data set: cell-based. The note with it: after prior addition of 20% FBS; 2, 4, 20, and 40 μM BDM. On the procedure:
In a related experiment, FBS was added to activate the contractile force and then a myosin ATPase inhibitor was added.

Data set [4] has as its system chicken embryo cardiac fibroblasts (CECFs). As to the kind of experiment: Contractile response of ring samples to agonists, CECFs. Type of data set: cell-based. From the text:
(§1) Profiles of contractile response to different agonists applied to ring samples were made using chicken embryo cardiac fibroblasts (CECFs) and rat adult cardiac fibroblasts (RACFs) and are shown in FIGS. 16(a)-(d) and FIGS. 16(e)-(h), respectively.
(§2) Time dependent force profiles after addition of FBS (20% v/v) were different depending on the pretreatment by different agonists.

Data set [5] deals with rat adult cardiac fibroblasts (RACFs). In words: Contractile response of ring samples to agonists, RACFs. It is filed as cell-based.
From the text: as §1, §2

Data set [6] concerns chicken embryo fibroblasts (CEF's) tissue model. As to the kind of experiment: Ring system: isometric force and dynamic stiffness of fibroblast populated matrices (FPM). Type of data set: cell-based. Particulars: for IC50: serial additions, sigmoidal dependence. On the procedure:
Chicken embryo fibroblasts (CEF's) isolated from 11-day chicken embryos (Spafas Inc., Preston, Conn.) were maintained in Dulbecco's modified Eagle's medium (DMEM) supplemented with 10% fetal calf serum (FCS), penicillin at 50 units/ml, and streptomycin at 50 microgram/milliliter. The CEF's used to make tissue models were passaged once or twice from primary cultures. Monomeric collagen solubilized in 0.02 M acetic acid (Upstate Biotechnology Inc., Lake Placid, N.Y.) was neutralized at 4° C. with 0.1 N NaOH and mixed with concentrated DMEM stock to yield a final normal DMEM concentration. The fibroblasts suspended by trypsin (FIG. 1a) were mixed with the collagen solution (FIG. 1b), the cell suspension was poured into Teflon casting wells (FIG. 1c), and the wells were incubated at 37° C. with 5% CO2 (FIG. 1d). The collagen polymerized within 15-30 min and fibroblasts were captured within the hydrated collagen gel. The collagen gel formed a ring (3 mm thick, 3 cm diameter) between the inner wall of the cylindrical well and the central mandrel. While in culture the cells compressed this ring, reducing its volume about 10-fold (thickness 200-300 μm). The ring could then be removed from the mandrel (FIG. 1e and FIG. 1f) and mounted on the measuring instrument (FIG. 1g) as described below.
Mechanical measurements were carried out using a ring system. After two days of incubation (serum starvation for the final 12-16 hours), the mandrel was removed from the casting well and the tissue model-ring was removed gently from the mandrel. As shown in FIG. 1 the tissue model-ring was looped over the triangular hook connected to an isometric force transducer (Model 52-9545, Harvard Apparatus, South Natick, Mass.) by a fine, flexible gold chain. The ring was also looped over a horizontal bar connected to a sliding element moveable vertically and linearly by a stepper motor (P/N 1-19-3400 24V DC 1.8° step size, Haward Industry, St. Louis, Mo.) controlled by a micro-stepping driver (IM483 Intelligent Motion Systems) to measure stress and dynamic modulus of the sample. The micro-stepping driver was controlled by a personal computer with software which enabled the stepper motor to achieve smooth motion. An analog-to-digital signal converter (CIO-DAS1602/16, Computer Boards, Inc., Mansfield, Mass.) attached to the computer translated the voltage signal from the isometric force transducer to a digital signal for recording on a data recorder. The stepper motor controlled the stretching of the tissue. Force exerted by or on the tissue was transmitted to the force transducer by the gold chain.
The tissue sample was submerged in 50 ml Hepes-buffered DMEM (pH 7.4) in a thermo-regulated organ bath (Harvard Apparatus, South Natick, Mass.) maintained at 37° C. The two horizontal bars over which the ring was looped were initially set to hold the ring at its original contour length (corresponding to the circumference of the mandrel).
Typically, for stiffness measurements, the tissue model is subjected to a sequence of stretch cycles. In each cycle the tissue model is slowly stretched from 0 to 20% over 30 minutes and the tissue model is then returned at the same rate to its original length by actuation of the stepper motor. The resulting increase in contractile force during the first stretch is substantially larger than the contractile force in subsequent stretches (FIG. 2a). For each stretch after the first stretch there is a further small decrease in maximum contractile force, but the decrease becomes negligible after sufficient pre-stretching. The tissue models produced contractile force in response to the activation of fibroblasts by serum. This contractile force was abolished by disrupting the actin cytoskeleton with cytochalasin D (2 μM) (FIG. 2b).
The amplitude of the force response divided by the stretching amplitude corresponded to the dynamic stiffness of the sample subjected to a preselected sinusoidal length change. […]

Like-named read-outs stand apart in the source and are kept apart here.

The values below come from patent US8227240B2, “Systems for screening pharmaceutical chemicals” (The Washington University, priority 2001, dated 2012).

Turning to Thrombin, the “force response of tissue ring at constant length” value (shortened to “force response of tissue ring”) in data set [1] was “produce different forces”.
Take `C[C@@H](N)[C@H]1CC[C@H](C(=O)Nc2ccncc2)CC1` [Y27632]: the “tension of connective tissue models” value in the data set with NIH 3T3 cells was “reduces the tension”. In the data set on chicken cardiac cells, the “force of cardiac tissue models” value is on record as “decreased”.
`NC[C@H](O)c1ccc(O)c(O)c1` [Norepinephrine, norepinephrine]: in data set [1], the “force response of tissue ring” value is “reduced the initial base line force”. Besides, in data set [2], the “cell force (active force) after adding the agent” value is given as “increased over time” and the “time at which cell force reached its maximum value” worked out at 7 min.
For collagenase, the “pre-tension (cellular contractility) compared to untreated control” value in [3] (1 U/ml collagenase, after Endothelin-1 50 nM) is listed as “maintained”. Besides, the “EA (tissue stiffness)” value in data set [3] (1 U/ml collagenase, about 10 min after treatment) is reported as “began to be reduced”. Further, the “pre-tension (cellular contractility)” value in data set [3] (10 U/ml collagenase, for ~10 min) is “didn't reduce the pre-tension significantly”. The “drop of EA (tissue stiffness)” value in data set [3] (100 U/ml collagenase, ~10 min after treatment) is “already significant”.
On to `CNC[C@H](O)c1cccc(O)c1` [phenylephrine], for which, in data set [1], the “force response of tissue ring” value is reported as “reduced the initial base line force”.
For `CO[C@H]1[C@@H](OC)C[C@H](C)[C@@H](OC)C2=CC(=O)C=C(NC(=O)/C(C)=C/C=C\[C@H](OC)[C@@H](OC(N)=O)/C(C)=C/[C@@H]1C)C2=O` [herbimycin A], the “maximum force during ring tissue development” value in the data set on ring tissue model was “reduces the maximum force”.
In the case of `CCO` [ethanol], in the data set with tissue models (10% solution of ethanol), the “force and stiffness of tissue models” value was “reduces force and stiffness of tissue models significantly”. Further, in the data set on tissue models (different dose of ethanol), the “level of baseline force maintained by the viable cells” value is on record as “decrease”.
Turning to `CC(=O)C(C)=NO` [BDM, butane dione monoxime], the “fully activated contractile force” value with myosin ATPase is listed as “reduced, in a dose dependent manner”.
“EGF: epidermal growth factor (NSDSECPLSHDGYCLHDGVCMYIEALDKYACNCVVGYIGERCQYRDLKWWELR; Epidermal growth factor; UniProt P01133 971-1023, looked up)”: the “contractile response of ring” value in [4] is on record as “did not respond to any dose”.
As for “angiotensin II (DRVYIHPF; Angiotensin-2; UniProt P01019 25-32, looked up) [agonist]”, the “contractile response of ring” value in data set [4] is reported as “did not response”; in data set [5], “responded”.
Regarding `CC[C@H](C)[C@H](NC(=O)[C@H](CC(=O)O)NC(=O)[C@H](CC(C)C)NC(=O)[C@H](Cc1c[nH]cn1)NC(=O)[C@@H]1CSSC[C@H](N)C(=O)N[C@@H](CO)C(=O)N[C@H]2CSSC[C@H](NC(=O)[C@H](CCC(=O)O)NC(=O)[C@H](CCCCN)NC(=O)[C@H](CC(=O)O)NC(=O)[C@H](CCSC)NC(=O)[C@H](CC(C)C)NC(=O)[C@H](CO)NC(=O)[C@H](CO)NC2=O)C(=O)N[C@@H](C(C)C)C(=O)N[C@@H](Cc2ccc(O)cc2)C(=O)N[C@@H](Cc2ccccc2)C(=O)N1)C(=O)N[C@H](C(=O)N[C@@H](Cc1c[nH]c2ccccc12)C(=O)O)[C@@H](C)CC` [endothelin, endothelin-1], in data set [4], the “contractile response of ring” value is given as “contracted rings”. In addition, the “pre-tension (cellular contractility)” value in [3] (Endothelin-1 50 nM) was “increased immediately”. In addition, the “force response of tissue ring” value in data set [1] is “produce different forces”. Further, in data set [2], the “cell force (active force) after adding the agent” value is “increased over time” and the “time at which cell force reached its maximum value” amounted to 7 min. The “contractile response of ring” value in data set [5] is “contracted rings”.
Regarding lysophosphatidic acid [LPA], in data set [1], the “force response of tissue ring” value is given as “produce different forces”.
For the compound `NC(=O)CC[C@@H]1NC(=O)[C@H](Cc2ccccc2)NC(=O)[C@H](Cc2ccc(O)cc2)NC(=O)[C@@H](N)CSSC[C@@H](C(=O)N2CCC[C@H]2C(=O)N[C@@H](CCCN=C(N)N)C(=O)NCC(N)=O)NC(=O)[C@H](CC(N)=O)NC1=O` [vasopressin], the “contractile response of ring” value in data set [4] is “did not response”; in [5], “responded”. In [1], the “force response of tissue ring” value is “produce different forces”.
In the case of `COC(=O)Nc1nc2ccc(C(=O)c3cccs3)cc2[nH]1` [nocodazole], in the data set with ring tissue model, the “maximum force during ring tissue development” value is listed as “reduces the maximum force”.
On to `C/C1=C/C(=O)O[C@@H]2C[C@@H](CC[C@H](C)/C=C\CC1)O[C@@](O)([C@@H]1CSC(=O)N1)C2` [LA-B, Latrunculin B], for which, in [6], the “concentration at which force and dynamic stiffness reached their minimum values” is approximately 600 nM; the “concentration range over which tension and stiffness decrease” value is given as “single decade”; the “lowest concentration at which force and dynamic stiffness were significantly diminished” value is 40 nM. In data set [6] (data not shown), the “effect on viscosity of the tissues (phase angle δ)” value was “relatively minor effect”. The IC50 in [6] (read-out: estimated half maximum concentration for reducing the force) is 53 nM. For the same compound, the IC50 in [6] (read-out: estimated half maximum concentration for reducing the stiffness) was 68 nM.
